Broadly, the IC50 is the concentration that gives 50% inhibition.

The structures appear in SMILES notation.

This test deals with T1, HPK1 kinase (aa1-346, Life Technologies) (Homo sapiens, UniProt Q92918).
T1 construct: HPK1 kinase (aa1-346, Life Technologies); purchased Life Technologies
T1 sequence (Q92918 1-346): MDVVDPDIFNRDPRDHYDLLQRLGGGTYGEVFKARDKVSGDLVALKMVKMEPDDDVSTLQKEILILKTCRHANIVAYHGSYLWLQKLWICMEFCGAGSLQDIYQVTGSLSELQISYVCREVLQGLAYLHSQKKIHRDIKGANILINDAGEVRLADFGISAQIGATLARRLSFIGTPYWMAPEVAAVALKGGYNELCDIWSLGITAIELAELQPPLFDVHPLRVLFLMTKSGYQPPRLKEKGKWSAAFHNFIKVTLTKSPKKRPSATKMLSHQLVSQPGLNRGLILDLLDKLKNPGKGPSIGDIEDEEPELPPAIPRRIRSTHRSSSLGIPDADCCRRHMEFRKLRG
Description: HPK Kinase Activity Assay at 1 mM ATP (TR-FRET). As to conditions: HPK1 kinase 40 nM, 0.5 μM STK1 substrate, read-out: Enzymatic activity IC50. Type of test: biochemical. On the procedure: HPK Kinase Activity Assay at 1 mM ATP
Compounds disclosed herein were tested for inhibition of HPK1 kinase (aa1-346, Life Technologies) activity in assays based on the time-resolved fluorescence-resonance energy transfer (TR-FRET) methodology. The assays were carried out in 384-well low volume black plates in a reaction mixture containing HPK1 kinase (40 nM), 1 mM ATP, 0.5 μM STK1 substrate and 0-10 μM compound in buffer containing 50 mM HEPES, 0.01% BSA, 0.1 mM Orthovanadate, 10 mM MgCl2, 1 mM DTT, pH=7.0, 0.005% Tween-20. The kinase was incubated with the compounds disclosed herein or DMSO for 60 minutes at room temperature and the reaction was initiated by the addition of ATP and STK1 substrate. After reaction at room temperature for 120 minutes, an equal volume of stop/detection solution was added according to the manufacture's instruction (CisBio). The stop/detection solution contained STK Antibody-Cryptate and XL665-conjugated streptavidin in Detection Buffer. The TR-FRET signals (ratio of fluorescence emission at 665 nm over emission at 620 nm with excitation at 337 nm wavelength) were recorded on a PHERAstar FS plate reader (BMG Labtech). Phosphorylation of STK1 substrate led to the binding of STK Antibody-Cryptate to the biotinylated STK1 substrate, which places fluorescent donor (Eu^3+ crypate) in close proximity to the accepter (Streptavidin-XL665), thus resulting in a high degree of fluorescence resonance energy transfer. The inhibition of HPK1 in presence of increasing concentrations of compounds was calculated based on the ratio of fluorescence at 665 nm to that at 620 nm. The IC50 for each compound was derived from fitting the data to the four-parameter logistic equation by Graphpad Prism software.
A general note: TR-FRET usually uses a lanthanide donor and a delayed reading to cut background.
For `Cc1cc(-c2cnc3[nH]cc(-c4ccc(C(=O)N(C)C)cc4)c3c2)cc2c1N1CCN(C)CC1CC2` (centres unmarked) [Example 1, 4-(5-(3,10-dimethyl-2,3,4,4a,5,6-hexahydro-1H-pyrazino[1,2-a]quinolin-8-yl)-1H-pyrrolo[2,3-b]pyridin-3-yl)-N,N-dimethylbenzamide], the IC50 is 31 nM. Regarding `Cc1cc(-c2cnc3[nH]cc(-c4ccc(C(=O)N(C)C[C@H](C)O)cc4)c3c2)cc2c1N1CCN(C)C[C@H]1CC2` [Example 2A, 4-(5-((R)-3,10-dimethyl-2,3,4,4a,5,6-hexahydro-1H-pyrazino[1,2-a]quinolin-8-yl)-1H-pyrrolo[2,3-b]pyridin-3-yl)-N—((S)-2-hydroxypropyl)-N-methylbenzamide], the IC50 was 14 nM.

For `Cc1cc(-c2cnc3[nH]cc(-c4ccc(C(=O)N(C)C[C@H](C)O)cc4)c3c2)cc2c1N1CCN(C)C[C@@H]1CC2` [Example 2B, 4-(5-((S)-3,10-dimethyl-2,3,4,4a,5,6-hexahydro-1H-pyrazino[1,2-a]quinolin-8-yl)-1H-pyrrolo[2,3-b]pyridin-3-yl)-N—((S)-2-hydroxypropyl)-N-methylbenzamide], the IC50 came to 19 nM. As to `Cc1cc(-c2cnc3[nH]cc(-c4ccc(C(=O)N(C)C[C@@H](C)O)cc4)c3c2)cc2c1N1CCN(C)C[C@H]1CC2` [Example 3A, 4-(5-((R)-3,10-dimethyl-2,3,4,4a,5,6-hexahydro-1H-pyrazino[1,2-a]quinolin-8-yl)-1H-pyrrolo[2,3-b]pyridin-3-yl)-N—((R)-2-hydroxypropyl)-N-methylbenzamide], the IC50 is 21 nM. Under `Cc1cc(-c2cnc3[nH]cc(-c4ccc(C(=O)N(C)C[C@@H](C)O)cc4)c3c2)cc2c1N1CCN(C)C[C@@H]1CC2` [Example 3B, 4-(5-((S)-3,10-dimethyl-2,3,4,4a,5,6-hexahydro-1H-pyrazino[1,2-a]quinolin-8-yl)-1H-pyrrolo[2,3-b]pyridin-3-yl)-N—((R)-2-hydroxypropyl)-N-methylbenzamide] stands 18 nM; under `Cc1cc(-c2cnc3[nH]cc(-c4ccc(C(=O)N(C)C[C@@H]5CCOC5)cc4)c3c2)cc2c1N1CCN(C)C[C@H]1CC2` [Example 4A, 4-(5-((R)-3,10-dimethyl-2,3,4,4a,5,6-hexahydro-1H-pyrazino[1,2-a]quinolin-8-yl)-1H-pyrrolo[2,3-b]pyridin-3-yl)-N-methyl-N—(((S)-tetrahydrofuran-3-yl)methyl)benzamide], 14 nM. In the case of `Cc1cc(-c2cnc3[nH]cc(-c4ccc(C(=O)N(C)C[C@@H]5CCOC5)cc4)c3c2)cc2c1N1CCN(C)C[C@@H]1CC2` [Example 4B, 4-(5-((S)-3,10-dimethyl-2,3,4,4a,5,6-hexahydro-1H-pyrazino[1,2-a]quinolin-8-yl)-1H-pyrrolo[2,3-b]pyridin-3-yl)-N-methyl-N—(((S)-tetrahydrofuran-3-yl)methyl)benzamide] it was 15 nM. Consider `Cc1cc(-c2cnc3[nH]cc(-c4ccc(C(=O)N(C)C[C@H]5CCOC5)cc4)c3c2)cc2c1N1CCN(C)C[C@H]1CC2` [Example 5A, 4-(5-((R)-3,10-dimethyl-2,3,4,4a,5,6-hexahydro-1H-pyrazino[1,2-a]quinolin-8-yl)-1H-pyrrolo[2,3-b]pyridin-3-yl)-N-methyl-N—(((R)-tetrahydrofuran-3-yl)methyl)benzamide], for which the IC50 was 32 nM. In the case of `Cc1cc(-c2cnc3[nH]cc(-c4ccc(C(=O)N(C)C[C@H]5CCOC5)cc4)c3c2)cc2c1N1CCN(C)C[C@@H]1CC2` [Example 5B, 4-(5-((S)-3,10-dimethyl-2,3,4,4a,5,6-hexahydro-1H-pyrazino[1,2-a]quinolin-8-yl)-1H-pyrrolo[2,3-b]pyridin-3-yl)-N-methyl-N—(((R)-tetrahydrofuran-3-yl)methyl)benzamide] it was 27 nM. Under `Cc1cc(-c2c[nH]c3ncc(-c4cc(C)c5c(c4)CC[C@@H]4CN(C)CCN54)nc23)ccc1C(=O)N(C)C` [Example 6A, (R)-4-(2-(3,10-dimethyl-2,3,4,4a,5,6-hexahydro-1H-pyrazino[1,2-a]quinolin-8-yl)-5H-pyrrolo[2,3-b]pyrazin-7-yl)-N,N,2-trimethylbenzamide] stands 36 nM. In the case of `Cc1cc(-c2c[nH]c3ncc(-c4cc(C)c5c(c4)CC[C@H]4CN(C)CCN54)nc23)ccc1C(=O)N(C)C` [Example 6B, (S)-4-(2-(3,10-dimethyl-2,3,4,4a,5,6-hexahydro-1H-pyrazino[1,2-a]quinolin-8-yl)-5H-pyrrolo[2,3-b]pyrazin-7-yl)-N,N,2-trimethylbenzamide] it was 47 nM; in that of `Cc1cc(-c2cnc3[nH]cc(-c4ccc(C(=O)N(C)C)cc4)c3n2)cc2c1N1CCN(C)C[C@H]1CC2` [Example 7A, (R)-4-(2-(3,10-dimethyl-2,3,4,4a,5,6-hexahydro-1H-pyrazino[1,2-a]quinolin-8-yl)-5H-pyrrolo[2,3-b]pyrazin-7-yl)-N,N-dimethylbenzamide], 23 nM; in that of `Cc1cc(-c2cnc3[nH]cc(-c4ccc(C(=O)N(C)C)cc4)c3n2)cc2c1N1CCN(C)C[C@@H]1CC2` [Example 7B, (S)-4-(2-(3,10-dimethyl-2,3,4,4a,5,6-hexahydro-1H-pyrazino[1,2-a]quinolin-8-yl)-5H-pyrrolo[2,3-b]pyrazin-7-yl)-N,N-dimethylbenzamide], 22 nM. `Cc1cc(-c2c[nH]c3ncc(-c4cc(C)c5c(c4)CC[C@@H]4CN(C)CCN54)nc23)ccc1C(=O)N1CC2(COC2)C1` [Example 8A, (R)-(4-(2-(3,10-dimethyl-2,3,4,4a,5,6-hexahydro-1H-pyrazino[1,2-a]quinolin-8-yl)-5H-pyrrolo[2,3-b]pyrazin-7-yl)-2-methylphenyl)(2-oxa-6-azaspiro[3.3]heptan-6-yl)methanone]: the IC50 turned out to be 58 nM. As to `Cc1cc(-c2c[nH]c3ncc(-c4cc(C)c5c(c4)CC[C@H]4CN(C)CCN54)nc23)ccc1C(=O)N1CC2(COC2)C1` [Example 8B, (S)-(4-(2-(3,10-dimethyl-2,3,4,4a,5,6-hexahydro-1H-pyrazino[1,2-a]quinolin-8-yl)-5H-pyrrolo[2,3-b]pyrazin-7-yl)-2-methylphenyl)(2-oxa-6-azaspiro[3.3]heptan-6-yl)methanone], the half-maximal inhibitory concentration (IC50) came out at 61 nM. Under `Cc1cc(-c2cnc3[nH]cc(-c4ccc(C(=O)N5CC6(COC6)C5)cc4)c3n2)cc2c1N1CCN(C)C[C@H]1CC2` [Example 9A, (R)-(4-(2-(3,10-dimethyl-2,3,4,4a,5,6-hexahydro-1H-pyrazino[1,2-a]quinolin-8-yl)-5H-pyrrolo[2,3-b]pyrazin-7-yl)phenyl)(2-oxa-6-azaspiro[3.3]heptan-6-yl)methanone] stands 17 nM; under `Cc1cc(-c2cnc3[nH]cc(-c4ccc(C(=O)N5CC6(COC6)C5)cc4)c3n2)cc2c1N1CCN(C)C[C@@H]1CC2` [Example 9B, (S)-(4-(2-(3,10-dimethyl-2,3,4,4a,5,6-hexahydro-1H-pyrazino[1,2-a]quinolin-8-yl)-5H-pyrrolo[2,3-b]pyrazin-7-yl)phenyl)(2-oxa-6-azaspiro[3.3]heptan-6-yl)methanone], 21 nM. In the case of `Cc1cc(-c2cnc3[nH]cc(-c4ccc(C(=O)N(C)C[C@@H]5CCOC5)cc4)c3n2)cc2c1N1CCN(C)C[C@H]1CC2` [Example 10A, 4-(2-((R)-3,10-dimethyl-2,3,4,4a,5,6-hexahydro-1H-pyrazino[1,2-a]quinolin-8-yl)-5H-pyrrolo[2,3-b]pyrazin-7-yl)-N-methyl-N—(((S)-tetrahydrofuran-3-yl)methyl)benzamide] it was 17 nM; in that of `Cc1cc(-c2cnc3[nH]cc(-c4ccc(C(=O)N(C)C[C@@H]5CCOC5)cc4)c3n2)cc2c1N1CCN(C)C[C@@H]1CC2` [Example 10B, 4-(2-((S)-3,10-dimethyl-2,3,4,4a,5,6-hexahydro-1H-pyrazino[1,2-a]quinolin-8-yl)-5H-pyrrolo[2,3-b]pyrazin-7-yl)-N-methvl-N—(((S)-tetrahydrofuran-3-yl)methyl)benzamide], 17 nM; in that of `Cc1cc(-c2c[nH]c3ncc(-c4cc(C)c5c(c4)CC[C@@H]4CN(C)CCN54)nc23)ccc1C(=O)N(C)C[C@@H]1CCOC1` [Example 11A, 4-(2-((R)-3,10-dimethyl-2,3,4,4a,5,6-hexahydro-1H-pyrazino[1,2-a]quinolin-8-yl)-5H-pyrrolo[2,3-b]pyrazin-7-yl)-N,2-dimethyl-N—(((S)-tetrahydrofuran-3-yl)methyl)benzamide], 52 nM.

Values taken from patent US12459958B2, “Tricyclic compounds as HPK1 inhibitor and the use thereof” (BEIGENE, LTD., priority 2019, dated 2025).
